# Laboratory results: US8497298B2, “Use of benzo-fused heterocycle sulfamide derivatives for lowering lipids and lowering blood glucose levels” (Janssen Pharmaceutica NV, priority 2005, dated 2013)
# Columns and labels:
# [1] = test system: Zucker diabetic fatty (ZDF Gmi-fa/fa) rats; test: Zucker Diabetic Fatty Rats Assay, Study B: basal glucose and Day 8 plasma parameters (Example 15); format: in vivo, rat; conditions: for Basal glucose levels Day 4: Day 4, 2 hour fasted; for Basal glucose levels Day 4 / Basal glucose levels Day 6 / Basal glucose levels Day 0: in mg/dL; for Basal glucose levels Day 6: Day 6, 2 hour fasted; for Cholesterol / HDL / Insulin / Ratio (Triglyceride to HDL) / Triglyceride: Day 8 plasma; for Basal glucose levels Day 0: female ZDF rats
# Procedure: (§1) Compound #8 was suspended in 0.5% Methocel using a hand held homogenizer to reduce the particle size and a magnetic stir bar and stir plate to keep the particles homogeneously suspended throughout the dosing period. 0.5% Hydroxypropyl Methylcellulose (Methocel) used as vehicle/control. Compound #8 was tested in both diabetic models of mouse and rat.
# (§2) In this study, female Zucker diabetic fatty (ZDF Gmi-fa/fa) rats were selected for glucose lowering effect and oral glucose tolerance test (OGTT) studies. ZDF rats from (Charles River Laboratories, Wilmington, Mass.) at 7 weeks of age were individually housed and fed with C13004 diet (obtained from Research Diets, New Brunswick, N.J.). All of the rats were quarantined for a period of one week before transfer to the animal procedure room. A drop of blood (about 2 microliters) was collected by tail puncture and glucose concentration was detected with a glucometer (OneTouch UltraSmart, Lifescan, Milpitas, Calif.).
# (§3) ZDF rats at 8 weeks of age were randomized into four treatment groups based on glucose values (first criterion, average of 150 mg/dL) and body weight (second criterion, average of 240 g). 32 rats were allocated into 4 treatment groups of 8 rats each. The four groups were then treated with 0.5% Methocel (vehicle), 10 mg/kg Compound #8, 30 mg/kg Compound #8, and 100 mg/kg Compound #8 in vehicle, respectively.
# (§4) The rats were orally gavaged once daily (at 1500-1700 hour) with vehicle control (0.5% Methocel, pH7.4) or vehicle containing Compound #8 for 7 days. The dosing volume was 5 mL/kg body weight (1.2 mL for 250 gram rat). The rats were fed ad lib throughout the study.
# (§5) Basal glucose levels after treatments were measured on Day 4 and Day 6 in 2 hour fasted rats with a glucometer (OneTouch UltraSmart, Lifescan, Milpitas, Calif.) after collecting two microliters of blood through tail puncture. Oral Glucose Tolerance Test (OGTT) was performed on Day 7 in 4 hour-fasted rats. Two hours after being dosed with Compound #8 or vehicle, the rats were gavaged with a 2g/kg of 50% glucose solution right after basal glucose levels measurement (0 minute). Blood glucose levels were then measured at 30, 60, 90 and 120 minutes through tail puncture.
# On Day 8, rats were anaesthetized with sodium pentobarbital (1 ml/kg, intraperitoneal [i.p.] injection, SleepAway, Fort Dodge, Iowa) and blood was drawn via cardiac puncture using 3 mL syringe and collected into heparinized tubes. Plasma samples were obtained by centrifuging whole blood at 2000˜3000 g for 10˜20 minutes at 4° C. and stored at −20° C. for further measurement of insulin, HDL, total cholesterol and triglyceride.
# Plasma insulin concentrations were measured by in both studies using the appropriate rat/mouse insulin enzyme-linked immunosorbent assay (ELISA) kit (EZRMI-13K, LINCO Research, St. Charles, Mo.). Blood samples were diluted 1:4 in charcoal stripped mouse serum that was included in the ELISA kit. The rest of the procedure followed the manufacturers instruction. The total fluorescence was detected using an Orion 1 Microplate Luminometer (Berthold Detection Systems, Pforzheim, Germany).
# Plasma total cholesterol, high density lipoprotein (HDL), low density lipoprotein (LDL) and triglyceride concentrations were measured by using a Bayer ADVIA 1650 blood chemistry analyzer (Bayer HealthCare LLC, Diagnostic Division, Tarrytown, N.Y.). According to manufacturers protocol, cholesterol measurement was an enzymatic method utilizing cholesterol esterase and cholesterol oxidase conversion followed by a Trinder endpoint; Elimination/catalase method was used for HDL measurement; an enzymatic method with a Trinder endpoint was used for triglyceride measurement.
# (§6) Data from this study was analyzed using the standard two-tailed Student's t-test and are expressed below as means and standard errors.
# [2] = test system: Zucker diabetic fatty (ZDF Gmi-fa/fa) rats; test: Oral Glucose Tolerance Test (OGTT) in Zucker diabetic fatty rats, Day 7 (Example 15); format: in vivo, rat; conditions: for AUC for blood glucose (OGTT) / OGTT blood glucose 30 min / OGTT blood glucose 60 min / OGTT blood glucose 90 min / OGTT blood glucose 120 min: Day 7; for OGTT blood glucose 0 min: Day 7, 4 hour-fasted, 2g/kg glucose
# Procedure: as §1, §2, §3, §4, §5, §6
structure (smiles),measurement,setting,value
"NS(=O)(=O)NC[C@H]1COc2cc(Cl)ccc2O1 [Compound #8, (2S)-(−)-N-(6-Chloro-2,3-dihydro-benzo[1,4]dioxin-2-ylmethyl)-sulfamide]",Basal glucose levels Day 4,[1]; 10 mg/kg oral once daily,148 ± 15
same,Basal glucose levels Day 6,[1]; 10 mg/kg oral once daily,190 ± 28
same,Cholesterol,[1]; 10 mg/kg,142 ± 6 mg/dL
same,HDL,[1]; 10 mg/kg,36 ± 1.0 mg/dL
same,Insulin,[1]; 10 mg/kg,16 ± 1.0 ng/mL
same,Ratio (Triglyceride to HDL),[1]; 10 mg/kg,37 ± 3
same,Triglyceride,[1]; 10 mg/kg,1323 ± 124 mg/dL
same,Basal glucose levels Day 4,[1]; 30 mg/kg oral once daily,146 ± 9
same,Basal glucose levels Day 6,[1]; 30 mg/kg oral once daily,151 ± 11
same,Cholesterol,[1]; 30 mg/kg,144 ± 11 mg/dL
same,HDL,[1]; 30 mg/kg,36 ± 1.1 mg/dL
same,Insulin,[1]; 30 mg/kg,14 ± 1.1 ng/mL
same,Ratio (Triglyceride to HDL),[1]; 30 mg/kg,39 ± 7
same,Triglyceride,[1]; 30 mg/kg,1383 ± 254 mg/dL
same,Basal glucose levels Day 4,[1]; 100 mg/kg oral once daily,125 ± 4
same,Basal glucose levels Day 6,[1]; 100 mg/kg oral once daily,134 ± 5
same,plasma insulin decreased,"[1]; 100 mg/kg, Day 8",32%
same,ratio of triglyceride to HDL reduced,"[1]; 100 mg/kg, Day 8",59%
same,Cholesterol,[1]; 100 mg/kg,134 ± 7 mg/dL
same,HDL,[1]; 100 mg/kg,41 ± 2.2 mg/dL
same,Insulin,[1]; 100 mg/kg,8.8 ± 1.2 ng/mL
same,Ratio (Triglyceride to HDL),[1]; 100 mg/kg,19 ± 3
same,Triglyceride,[1]; 100 mg/kg,776 ± 119 mg/dL
same,food intake and weight loss,"[1]; any of the groups (10, 30, 100 mg/kg)",No reduction in food intake reduction or weight loss
same,Basal glucose levels Day 0,[1]; 10 mg/kg group,153 ± 13
same,Basal glucose levels Day 0,[1]; 30 mg/kg group,152 ± 11
same,Basal glucose levels Day 0,[1]; 100 mg/kg group,147 ± 7
same,AUC for blood glucose (OGTT),[2]; 10 mg/kg,33279 ± 3607 mg·min/dL
same,OGTT blood glucose 30 min,[2]; 10 mg/kg,281 ± 30
same,OGTT blood glucose 60 min,[2]; 10 mg/kg,316 ± 33
same,OGTT blood glucose 90 min,[2]; 10 mg/kg,293 ± 24
same,OGTT blood glucose 120 min,[2]; 10 mg/kg,252 ± 30
same,OGTT blood glucose 0 min,[2]; 10 mg/kg,186 ± 30
same,AUC for blood glucose (OGTT),[2]; 30 mg/kg,28556 ± 2477 mg·min/dL
same,OGTT blood glucose 30 min,[2]; 30 mg/kg,244 ± 24
same,OGTT blood glucose 60 min,[2]; 30 mg/kg,263 ± 18
same,OGTT blood glucose 90 min,[2]; 30 mg/kg,253 ± 23
same,OGTT blood glucose 120 min,[2]; 30 mg/kg,221 ± 18
same,OGTT blood glucose 0 min,[2]; 30 mg/kg,163 ± 18
same,AUC for blood glucose (OGTT),[2]; 100 mg/kg,21529 ± 984 mg·min/dL
same,OGTT blood glucose 30 min,[2]; 100 mg/kg,209 ± 14
same,OGTT blood glucose 60 min,[2]; 100 mg/kg,200 ± 10
same,OGTT blood glucose 90 min,[2]; 100 mg/kg,175 ± 8
same,OGTT blood glucose 120 min,[2]; 100 mg/kg,145 ± 7
same,OGTT blood glucose 0 min,[2]; 100 mg/kg,123 ± 5
